Series [1] concerns L. mexicana axenic amastigotes. The series can be described thus: Initial screen, L. mexicana axenic amastigotes, Alamar Blue. Type of series: cell-based, Leishmania mexicana. Conditions: for initial hit against L. mexicana: growth inhibited by ≥80%; for activity at 2 µM / inhibition of growth at 2 µM: Leishmania mexicana; for inhibition of growth at 2 µM: read-out: initial hit L.m. Put shortly: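 Purified temperate plant natural products from a commercial library (1 mg/mL in DMSO) were tested against Leishmania mexicana axenic amastigotes at a final 2 μM. Parasites were seeded at 1 × 10^6 cells/mL in 96-well plates containing 200 μL culture and incubated 72 h. Growth was measured by Alamar Blue and normalised to DMSO controls (1% v/v), with triplicates over two biological replicates (n = 6).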
A general note: Resazurin is reduced to fluorescent resorufin, in cell work by metabolically active cells.

Series [2] deals with P. falciparum Dd2Luc intraerythrocytic trophozoites. Briefly: Initial screen, intraerythrocytic P. falciparum, Malaria SYBR-Green I fluorescence assay. Type of series: cell-based, Plasmodium falciparum. Conditions: for activity at 2 µM / inhibition of growth at 2 µM: Plasmodium falciparum, 48 h; for initial hit against P. falciparum: 2 μM, growth reduced by ≥50%; for inhibition of growth at 2 µM: read-out: initial hit P.f. Put shortly: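 L. mexicana axenic amastigotes at 1 × 10^6 cells/mL exposed 72 h to compounds at 2 μM, growth read by Alamar Blue; P. falciparum trophozoites at 0.5% parasitaemia, 2% haematocrit, 48 h at 2 μM, SYBR-Green I read-out. Growth normalised to 1% DMSO; hits ≥50% growth reduction.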

Series [3] has as its system L. mexicana axenic amastigotes. Briefly: Concentration-response EC50, L. mexicana axenic amastigotes (WT). Type of series: cell-based, Leishmania mexicana.
The nature of series [4]: in vitro. As to conditions: human. Put shortly:
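Human hepatoma cells seeded at 1 × 10^5 cells/mL with two-fold serial compound dilutions, incubated 48 h at 37 °C, 5% CO2 in DMEM/10% FBS. Viability read by Alamar Blue. CC50 estimated from viability normalised to untreated controls versus log concentration.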

Series [5] in a line: Cytotoxicity CC50, differentiated THP-1, Alamar Blue. Type of series: cell-based, human. Conditions: human.
[6] abbreviates: read-out: % growth L. mexicana, mean % growth compared to a normalised control with same concentration of DMSO solvent, initial screen.
Where [7] appears, read: read-out: %growth P. falciparum, mean % growth compared to a normalised control with same concentration of DMSO solvent, initial screen.
[8] abbreviates: Leishmania mexicana, 72 h, read-out: L. mexicana EC50, axenic amastigotes, 72 h.
[9] abbreviates: read-out: mean % growth, L. mexicana, initial screen, compared to a normalised control with same concentration of DMSO solvent.
The mark [10] stands for this setting: read-out: mean % growth, P. falciparum, initial screen, compared to a normalised control with same concentration of DMSO solvent.
Setting [11] is: differentiated THP-1, 48 h, read-out: THP1 CC50.
Where [12] appears, read: initial screen, compared to a normalised control with same concentration of DMSO solvent.

Like-named read-outs stand apart in the source and are kept apart here.

Regarding `C/C(=C/C(=O)CC(C)C1CCC2(C)C3=CCC4C(C)(C)C(=O)CCC4(C)C3CCC12C)C(=O)O` (stereo not shown) [Compound 700240], the “initial hit against L. mexicana” value in series [1] (2 μM) is reported as “initial hits”. For the same compound, the activity at 2 µM in series [1] (setting [6]) was -10.1%; in series [2] (setting [7]), 77.9%. Besides, the inhibition of growth at 2 µM in series [1] (2 μM, x = initial hit) was over 80%. Also, the EC50 (usually the concentration giving half of the maximal effect) in series [3] (setting [8]) amounted to 0.51 µM. Also, the CC50 at 48 h in series [4] (pH 7, HepG2 CC50) was 47 µM; in series [5] (THP-1 cells differentiated into macrophages with PMA, differentiated THP-1, 48 h, read-out: THP1 CC50) it was 13.5 µM.
As for `C=C1C(=O)OC2CC(C)C3C=CC(=O)C3(C)C(OC(=O)C(C)C)C12` (stereo not shown) [Compound 701157], the “initial hit against L. mexicana” value in series [1] (2 μM) is “initial hits”. The inhibition of growth at 2 µM in series [1] is over 80%. Further, the activity at 2 µM in series [1] (setting [9]) is 0.07%; in series [2] (setting [10]), 51.9%. For the same compound, in series [3] (setting [8]), the EC50 stood at 0.2 µM. The CC50 at 48 h turned out to be 1.3 µM in series [4] (pH 7, HepG2 CC50, 48 h) and 0.73 µM in series [5] (setting [11]).
On to `CC1OC(OC2C(OC(=O)C3CC[C@@H]4[C@H](C3)OC3(CC(OC(=O)/C=C/c5ccccc5)[C@@H](C)CO3)C43CO3)OC(CO)C(O)C2O)C(O)C(O)C1O` (stereo partly shown) [Compound 700042], for which, in series [1] (setting [6]), the activity at 2 µM stood at 79.1%. In addition, in series [2], the “initial hit against P. falciparum” value is “initial hits” and the inhibition of growth at 2 µM was over 50%. In series [2] (setting [7]), the activity at 2 µM came to 28.9%. This compound displayed a CC50 at 48 h in series [4] (pH 7, HepG2 CC50, 48 h) of 2.5 µM.
Take `C=C1C(=O)OC2CC(C)C3C(OC)CC(=O)C3(C)C(OC(=O)C(C)CC)C12` (stereo not shown) [Compound 701159]: the “initial hit against L. mexicana” value in series [1] (2 μM) is “initial hits”. Further, the activity at 2 µM in series [1] (setting [9]) is 1.5%; in series [2] (setting [10]), 83.7%. Also, in series [1] (2 μM, x = initial hit), the inhibition of growth at 2 µM was over 80%. In series [3] (setting [8]), the EC50 turned out to be 0.87 µM. Moreover, the CC50 at 48 h in series [4] (pH 7, HepG2 CC50, 48 h) was 3.4 µM; in series [5] (setting [11]), 1.42 µM.
For `CC1=CC(O)(CC(C)C2(C)CCC3C4=CCC5C(C)(CCC(O)C5(C)C)C4=CCC32C)OC1=O` (stereo not shown) [Compound 700107], the “initial hit against L. mexicana” value in series [1] (2 μM) is on record as “initial hits”. In addition, the activity at 2 µM was 8.1% in series [1] (setting [6]) and 96.8% in series [2] (setting [7]). For the same compound, the inhibition of growth at 2 µM in series [1] (2 μM, x = initial hit) was over 80%. Moreover, the EC50 in series [3] (setting [8]) came to 0.26 µM. Also, the CC50 at 48 h was 45 µM in series [4] (pH 7, HepG2 CC50) and 27 µM in series [5] (THP1 CC50).
On to `C=C1C(=O)OC2CC(C)C3C=CC(=O)C3(C)C(OC(C)=O)C12` (stereo not shown) [Compound 701155], for which the “initial hit against L. mexicana” value in series [1] (2 μM) is listed as “initial hits”. Further, the “mean % growth, L. mexicana” value in series [1] (setting [12]) is -0.28%. The “mean % growth, P. falciparum” value in series [2] (setting [12]) was 55.1%. Moreover, the EC50 in series [3] (read-out: L. mexicana EC50, axenic amastigotes, 72 h) was found to be 0.23 µM.
As for `CC1=CC(O)(CC(C)C2(C)CC=C3C4=CCC5C(C)(C)C(O)CCC5(C)C4CCC32C)OC1=O` (stereo not shown) [Compound 700022], the “initial hit against L. mexicana” value in series [1] (2 μM) is “initial hits”. The values for the activity at 2 µM in series [1] (setting [6]) and in series [2] (setting [7]) were 0.54% and 105%, respectively. Moreover, in series [1] (2 μM, x = initial hit), the inhibition of growth at 2 µM is over 80%. Also, the EC50 in series [3] (setting [8]) is 0.25 µM; in series [3] (Leishmania mexicana, read-out: WT EC50, L. mexicana WT axenic amastigotes), 0.24 µM. The CC50 at 48 h in series [4] (pH 7, HepG2 CC50) stood at 28 µM; in series [5] (THP1 CC50), 17 µM.
As to `C=C1C(=O)OC2CC(C)C3C=CC(=O)C3(C)C(OC(=O)C(C)CC)C12` (stereo not shown) [Compound 701158], the “initial hit against L. mexicana” value in series [1] (2 μM) is on record as “initial hits”. Also, the inhibition of growth at 2 µM in series [1] was over 80%; in series [2], over 50%. For the same compound, the activity at 2 µM is -1.7% in series [1] (setting [9]) and 49% in series [2] (setting [10]). In addition, the “initial hit against P. falciparum” value in series [2] is “initial hits”. Further, the EC50 in series [3] (setting [8]) turned out to be 0.24 µM. Also, the CC50 at 48 h in series [4] (pH 7, HepG2 CC50, 48 h) was 0.8 µM; in series [5] (setting [11]), 0.29 µM.
Regarding `CC1=CC(O)(CC(C)C2(C)CC=C3C4=CCC5C(C)(C)C(=O)CCC5(C)C4CCC32C)OC1=O` (stereo not shown) [Compound 700136], the “initial hit against L. mexicana” value in series [1] (2 μM) is “initial hits”. Also, the activity at 2 µM in series [1] (setting [6]) was -0.4%; in series [2] (setting [7]), 99.9%. Besides, the inhibition of growth at 2 µM in series [1] (2 μM, x = initial hit) is over 80%. Further, the EC50 in series [3] (setting [8]) was found to be 0.21 µM. Moreover, the CC50 at 48 h in series [4] (pH 7, HepG2 CC50) was found to be 28 µM; in series [5] (THP1 CC50) it was 17 µM.
